Results published in patent US20140275169A1, “Combination Therapies for Enhancing Protein Degradation” (The Regents of the University of Michigan, priority 2013, published 2014).

Experiments:
[1] = target: Usp14 (Homo sapiens, UniProt P54578); test: Inhibition of Usp14 (statement in overview); format: biochemical
[2] = tested on: endogenous total tau; test: Degradation of endogenous total tau in primary cortical rat neurons, SDS-PAGE immunoblot with tau-5 antibody; format: cell-based; conditions: 24 hours, individual compounds (lanes 2 and 3) and combination (lane 4)
Procedure: These independently duplicated experiments were carried out in primary cortical rat neurons for 24 hours. Tau was detected after SDS-PAGE immunoblot analysis, using the tau-5 antibody.
The combined effect of Usp14 inhibitors and Hsp70 inhibitors on tau levels is shown to be synergistic in this experiment in that this effect (lane 4) is greater than the sum of the individual effects of these compounds (lanes 2 and 3). To cite one example, in FIG. 5A the individual effects are approximately 8% and 2% for Usp14 and Hsp70 inhibitors, respectively, while the combined effect is approximately 71%, far greater than the expected additive effect of approximately 10%.
This experiment was carried out in primary cortical rat neurons for 48 hours. Tau was detected after SDS-PAGE immunoblot analysis, using the tau-5 antibody.
This experiment was carried out in primary cortical rat neurons for 24 hours. Tau was detected after SDS-PAGE immunoblot analysis, using the tau-5 antibody.

Sequence of Usp14 (P54578 whole entry, species assumed): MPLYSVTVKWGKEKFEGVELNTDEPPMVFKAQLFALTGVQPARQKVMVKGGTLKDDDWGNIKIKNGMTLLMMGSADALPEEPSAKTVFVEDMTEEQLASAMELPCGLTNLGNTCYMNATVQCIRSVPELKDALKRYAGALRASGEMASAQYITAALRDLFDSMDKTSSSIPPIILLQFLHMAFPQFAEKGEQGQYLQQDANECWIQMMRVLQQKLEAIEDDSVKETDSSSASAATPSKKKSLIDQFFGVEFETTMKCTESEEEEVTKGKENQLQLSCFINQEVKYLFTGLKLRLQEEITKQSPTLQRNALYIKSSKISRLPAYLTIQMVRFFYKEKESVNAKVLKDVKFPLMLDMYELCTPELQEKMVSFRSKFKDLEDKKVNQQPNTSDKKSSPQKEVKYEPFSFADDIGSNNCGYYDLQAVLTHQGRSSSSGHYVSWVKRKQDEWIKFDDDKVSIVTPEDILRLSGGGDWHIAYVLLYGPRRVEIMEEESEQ

| Structure (SMILES) | Usp14 inhibition, qualitative [1] | effect on tau levels (FIG. 5A) [2] |
| --- | --- | --- |
| Cc1cc(C(=O)CN2CCCC2)c(C)n1-c1ccc(F)cc1 [IU1, 1-(1-(4-fluorophenyl)-2,5-dimethyl-1H-pyrrol-3-yl)-2-(pyrrolidin-1-yl)ethanone] | inhibitor of Usp14 |  |
| Cc1cc(C(=O)CN2CCCCC2)c(C)n1-c1ccc(Cl)cc1 [IU1-47] | more potent variant of IU1 | approximately 8% |
